Laboratory results as given in ChEMBL document CHEMBL4002559, “Micromonohalimanes A and B: Antibacterial Halimane-Type Diterpenoids from a Marine Micromonospora Species” (2016).
Values after ≈ are worked out from the molar mass of the structure shown. Active and inactive are the calls of the source. No cut-off for these calls is given here.

Columns and labels:
Staphylococcus aureus [1] = assay: Bacteriostatic activity against methicillin-resistant Staphylococcus aureus ATCC 33591 by LB plate method; assay type: functional
Staphylococcus aureus [2] = assay: Antibacterial activity against methicillin-resistant Staphylococcus aureus ATCC 33591 after 18 hrs by dilution method; assay type: functional; settings: ATCC 33591, 18 h

Structure (SMILES): CC(=O)O[C@H]1C(=O)O[C@H](C[C@@]2(C)[C@@H]3CCCC(C)(C)C3=CC[C@@H]2C)[C@]1(O)CCl
- Activity (Staphylococcus aureus [1]): Active
- MIC (Staphylococcus aureus [2]): 40 µg/mL (≈ 96.9 µM)

Structure (SMILES): CC(=O)O[C@H](C[C@@]1(C)[C@@H]2CCCC(C)(C)C2=CC[C@@H]1C)[C@@]1(O)COC(=O)[C@@H]1O
- MIC (Staphylococcus aureus [2]): > 200 µg/mL
